Experimental data published in patent US7384934B2, “Piperazine substituted aryl benzodiazepines” (Eli Lilly and Company, priority 2002, dated 2008).
Structures can show the parent of a compound that is named as a salt.

biological target: T1, Dopamine D2 receptor (Homo sapiens, UniProt P14416); test: Dopamine D2 receptor binding assay ([125I]iodospiperone); details: relative Ki scale of Table 5; read-out: Relative D2 Receptor Binding Affinity Ki
T1 construct: purchased Receptor Biology (now owned by NEN) RBHD2CM
T1 sequence (P14416 1-414 isoform P14416-2): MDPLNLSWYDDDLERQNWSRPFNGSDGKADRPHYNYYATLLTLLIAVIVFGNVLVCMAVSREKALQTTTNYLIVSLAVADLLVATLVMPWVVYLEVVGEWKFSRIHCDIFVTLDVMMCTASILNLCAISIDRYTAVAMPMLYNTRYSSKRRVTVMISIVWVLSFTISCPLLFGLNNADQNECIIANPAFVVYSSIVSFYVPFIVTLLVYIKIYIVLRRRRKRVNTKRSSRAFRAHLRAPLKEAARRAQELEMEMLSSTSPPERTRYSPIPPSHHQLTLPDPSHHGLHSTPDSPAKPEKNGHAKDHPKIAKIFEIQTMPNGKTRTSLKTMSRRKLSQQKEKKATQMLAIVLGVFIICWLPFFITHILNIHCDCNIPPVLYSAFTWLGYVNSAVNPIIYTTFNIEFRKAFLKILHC
Method: The assay buffers used are 50 mM Tris-HCl pH 7.4, 120 mM NaCl, 5 mM KCl, 5 mM MgCl2, 1 mM EDTA for the Dopamine D2s receptor binding assay. […] The membranes used are from Receptor Biology (now owned by NEN), Cat # RBHD2CM for the D2 receptor.
Compounds are obtained as 10 mM stocks in 100% DMSO. They are diluted to 1 mM in 100% DMSO by adding 180 μL DMSO to 20 μL of stock in 96 well plates using a multidrop. […] This is done using a TECAN robot.
The radioligand is diluted in assay buffer to provide 0.1 nM for the D2 assay. Each vial of membranes is diluted up to 92 mL in assay buffer. The final assay volume is 250 μL consisting of 210 μl of diluted membranes, 20 μL of compound or 10% DMSO for total binding, and 20 μL of diluted radioligand. The compounds are transferred from drug dilution plates into coming 96 well assay plates using a 96 well Multimek pipettor. Radioligand and membranes are added to assay plates using multidrop pipettors. Non-specific binding is determined in wells containing a final concentration of 5 μM haloperidol. The final drug concentration range in half logs is from 10 μM down to 0.1 nM.
After addition of drug, membrane, and ligand, the plates are incubated for 2 hours at room temperature. During this time 96 well Millipore filter plates (MAFBNOB50) are soaked for a least 30 minutes with 200 μL per well of 0.5% polyethyleneimine.
The 0.5% PEI is removed from filterplate wells using a TiterTek MAP aspirator and 200 μL of the incubation mixture is transferred from the incubation plate to the filterplate after mixing. This transfer is done using the 96 tip Mutimek pipettor. After transfer to the filterplate filterplates are extracted and ished twice with 220 μL per well of cold buffer on the MAP aspirator. The peel away bottoms are removed from the filterplates and 60 μL per well of microscint 20 scintillation fluid is added per well using a multidrop. […]

| Ki [nM] | Structure (SMILES) |
| --- | --- |
| > 1000 | COCC[C@H]1CN(C2=Nc3ccccc3Nc3cc(C)ccc32)CCN1 [Example 198, (S)-3-Methyl-11-[3-(2-methoxy-ethyl)-piperazin-1-yl]-5H-dibenzo[b,e][1,4]diazepine] |
| 10 to 100 | CCOCC[C@H]1CN(C2=Nc3ccccc3Nc3sc(C(C)C)nc32)CCN1 [Example 309, (S)-10-[3-(2-Ethoxyethyl)-piperazin-1-yl]-2-isopropyl-4H-3-thia-1,4,9-triazabenzo[f]azulene] |
| 100 to 1000 | CCOC(=O)c1nc2c(s1)Nc1ccccc1N=C2N1CCN[C@@H](CCOC)C1 [Example 313, (S)-10-[3-(2-Methoxy-ethyl)-piperazin-1-yl]-4H-3-thia-1,4,9-triaza-benzo[f]azulene-2-carboxylic acid ethyl ester] |
| < 10 | COCC[C@H]1CN(C2=Nc3ccccc3Nc3sc(C(F)F)nc32)CCN1 [Example 316, (S)-10-[3-(2-Methoxy-ethyl)-piperazin-1-yl]-2-difluoromethyl-4H-3-thia-1,49-triaza-benzo[f]azulene] |
| 10 to 100 | COCC[C@H]1CN(C2=Nc3ccccc3Nc3sc(C)nc32)CCN1C [Example 320, (S)-10-[3-(2-Methoxyethyl)-4-methylpiperazin-1-yl]-2-methyl-4H-3-thia-1,4,9-triazabenzo[f]azulene dihydrochloride] |
| 10 to 100 | CCc1nc2c(s1)Nc1ccccc1N=C2N1CCN(C)[C@@H](CCOC)C1 [Example 322, (S)-10-[3-(2-Methoxy-ethyl)-4-methyl-piperazin-1-yl]-2-ethyl-4H-3-thia-1,49-triaza-benzo[f]azulene dihydrochloride] |
| 10 to 100 | CCCCc1nc2c(s1)Nc1ccccc1N=C2N1CCN(C)[C@@H](CCOC)C1 [Example 324, (S)-10-[3-(2-Methoxy-ethyl)-4-methyl-piperazin-1-yl]-2-butyl 4H-3-thia-1,4,9-triaza-benzo[f]azulene] |
| < 10 | CC(C)c1nc2c(s1)Nc1ccccc1N=C2N1CCN(C)[C@@H](CCO)C1 [Example 326, (S)-2-[4-(2-Isopropyl-4H-3-thia-1,49-triazabenzo[f]azulene-10-yl)-1-methylpiperazin-2-yl]ethanol] |

The remaining lines, values behind:

| Structure (SMILES) | Ki [nM] |
| --- | --- |
| COC(C)C[C@H]1CN(C2=Nc3ccccc3Nc3sc(C)cc32)CCN1 (mixture of isomers) [Example 359, 10-[3(S)-(2(S)-Methoxypropyl)-piperazin-1-yl]-2-methyl-4H-3-thia-4,9-diazabenzo[f]azulene and 10-[3(S)-(2(R)-Methoxypropyl)-piperazin-1-yl]-2-methyl-4H-3-thia-4,9-diazabenzo[f]azulene] | 10 to 100 |
| COC(C)C[C@H]1CN(C2=Nc3ccccc3Nc3sc(C)cc32)CCN1C (mixture of isomers) [Example 360, 10-[3(S)-(2(S)-Methoxypropyl)-4-methylpiperazin-1-yl]-2-methyl-4H-3-thia-4,9-diazabenzo[f]azulene dihydrochloride and 10-[3(S)-(2(R)-Methoxypropyl)-4-methylpiperazin-1-yl]-2-methyl-4H-3-thia-4,9-diazabenzo[f]azulene dihydrochloride] | 100 to 1000 |
| COC(C)C[C@H]1CN(C2=Nc3ccccc3Nc3sc(C(C)C)nc32)CCN1 (mixture of isomers) [Example 361, 10-[3(S)-(2(S)-Methoxy-propyl)-piperazin-1-yl]-2-isopropyl-4H-3-thia-1,4,9-triazabenzo[f]azulene and 10-[3(S)-(2(R)-Methoxy-propyl)-piperazin-1-yl]-2-isopropyl-4H-3-thia-1,4,9-triazabenzo[f]azulene] | < 10 |
| COCC[C@H]1CN(C2=Nc3ccccc3Nc3sc(C)cc32)CCN1 [Example 242, (S)-10-[3-(2-Methoxyethyl)-piperazin-1-yl]-2-methyl-4H-3-thia-4,9-diazabenzo[f]azulene hydrochloride] | 10 to 100 |
| COCC[C@H]1CN(C2=Nc3ccccc3Nc3sc(C)cc32)CCN1C [Example 267, (s)-10-[3-(2-Methoxyethyl)-4-methylpiperazin-1-yl]-2-methyl-4H-3-thia-4,9-diazabenzo[f]azulene dihydrochloride] | 10 to 100 |
| CCOCC[C@H]1CN(C2=Nc3ccccc3Nc3sc(C)cc32)CCN1C [Example 268, (S)-10-[3-(2-Ethoxyethyl)-4-methyl-piperazin-1-yl]-2-methyl-4H-3-thia-4,9-diazabenzo[f]azulene dihydrochloride] | 10 to 100 |
| Cc1cc2c(s1)Nc1ccccc1N=C2N1CCN(C)[C@@H](CCOc2ccccc2)C1 [Example 269, (S)-10-[4-Methyl-3-(2-phenoxyethyl)piperazin-1-yl]-2-methyl-4H-3-thia-4,9-diazabenzo[f]azulene dihydrochloride] | 10 to 100 |
| CCOCC[C@H]1CN(C2=Nc3ccccc3Nc3sc(C)nc32)CCN1 [Example 302, (S)-10-[3-(2-Ethoxyethyl)-piperazin-1-yl]-2-methyl-4H-3-thia-1,4,9-triazabenzo[f]azulene] | 10 to 100 |
| CCc1nc2c(s1)Nc1ccccc1N=C2N1CCN[C@@H](CCOC)C1 [Example 303, (S)-10-[3-(2-Methoxy-ethyl)-piperazin-1-yl]-2-ethyl-4H-3-thia-1,4,9-triaza-benzo[f]azulene] | < 10 |
| CCCc1nc2c(s1)Nc1ccccc1N=C2N1CCN[C@@H](CCOC)C1 [Example 304, (S)-10-[3-(2-Methoxy-ethyl)-piperazin-1-yl]-2-propyl-4H-3-thia-1,4,9-triaza-benzo[f]azulene] | < 10 |
| CCCCc1nc2c(s1)Nc1ccccc1N=C2N1CCN[C@@H](CCOC)C1 [Example 305, (S)-10-[3-(2-Methoxy-ethyl)-piperazin-1-yl]-2-butyl-4H-3-thia-1,4,9-triaza-benzo[f]azulene] | 10 to 100 |
| COCC[C@H]1CN(C2=Nc3ccccc3Nc3sc(CO)nc32)CCN1 [Example 312, (S)-10-[3-(2-Methoxy-ethyl)-piperazin-1-yl]-4H-3-thia-1,4,9-triaza-benzo[f]azulene-2-yl-methanol] | 100 to 1000 |
| COCC[C@H]1CN(C2=Nc3ccccc3Nc3sc(C(F)(F)F)nc32)CCN1 [Example 314, (S)-10-[3-(2-Methoxy-ethyl)-piperazin-1-yl]-2-trifluoromethyl-4H-3-thia-1,4,9-triaza-benzo[f]azulene] | < 10 |
| COCC[C@H]1CN(C2=Nc3ccccc3Nc3sc(CCC(F)(F)F)nc32)CCN1 [Example 318, (S)-10-[3-(2-Methoxy-ethyl)-piperazin-1-yl]-2-(3,3,3-trifluoro-propyl)-4H-3-thia-1,4,9-triaza-benzo[f]azulene dihydrochloride] | < 10 |
| Cc1nc2c(s1)Nc1ccccc1N=C2N1CCN(C)[C@@H](CCO)C1 [Example 319, (S)-2-[1-Methyl-4-(2-methyl-4H-3-thia-1,4,9-triazabenzo[f]azulene-10-yl)piperazin-2-yl]ethanol dihydrochloride] | 10 to 100 |
| CCOCC[C@H]1CN(C2=Nc3ccccc3Nc3sc(C)nc32)CCN1C [Example 321, (S)-10-[3-(2-Ethoxyethyl)-4-methyl-piperazin-1-yl]-2-methyl-4H-3-thia-1,4,9-triazabenzo[f]azulene dihydrochloride] | 100 to 1000 |
| CCCc1nc2c(s1)Nc1ccccc1N=C2N1CCN(C)[C@@H](CCOC)C1 [Example 323, (S)-10-[3-(2-Methoxy-ethyl)-4-methyl-piperazin-1-yl]-2-propyl 4H-3-thia-1,4,9-triaza-benzo[f]azulene dihydrochloride] | 10 to 100 |
